Where “and” joins values, the source holds several entries; their conditions need not be identical. Identical values can stand only once. Like-named read-outs stand apart in the source and are kept apart here.
Legend:
Assay type in all cases: biochemical
human factor XIa = target: T1, human factor XIa (Homo sapiens, UniProt P03951); test: Direct inhibition of factor XIa, chromogenic substrate S-2366 hydrolysis assay
T1 construct: purchased Haematologic Technologies (Essex Junction, Vt.); host or cells: human plasma
Procedure: Solvent A consisted of 25 mM n-hexylamine in water containing 0.1% (v/v) formic acid, while solvent B consisted of 25 mM n-hexylamine in acetonitrile-water mixture (3:1 v/v) containing 0.1% (v/v) formic acid. […] The sample was first monitored for absorbance in the range of 190-400 nm and then directly introduced into the mass spectrometer. ESI-MS detection was performed in positive ion mode for which the capillary voltage was 4 kV, cone voltage was 20 V, desolvation temperature was 350° C. and nitrogen gas flow was maintained at 650 L/hr. Mass scans were collected in the range of 1000-2048 amu within 0.25 s and several of these added to enhanced signal-to-noise ratio. Direct Inhibition of Factor XIa. […] After 10 min incubation, 5 μL factor XIa substrate (345 μM) was rapidly added and the residual FXIa activity was measured from the initial rate of increase in absorbance at 405 nm. […] Relative residual FXIa activity at each concentration of the inhibitor was calculated from the ratio of FXIa activity in the presence and absence of the inhibitor. Logistic equation 1 was used to fit the dose-dependence of residual protease activity to obtain the potency (IC50) and efficacy (ΔY) of inhibition.
Direct Inhibition of Factor XIa by Sulfated QAOs was performed as described in Example 1.
The ability of the sulfated inositol analogs to inhibit factor XIa was studied using the in vitro assay described in Example 1. In this assay, the factor XIa enzyme is anticipated to hydrolyze a particular peptide linkage in the corresponding peptide substrate releasing p-nitroaniline which absorbs at wavelength of 405 nm giving a line slope corresponds to the enzyme activity. The line slope of no inhibitor status is considered as a reference slope and it depends on the relative concentrations of factor XIa enzyme and its substrate. Factor XIa enzyme concentration was decided to get appropriate reference slope of approximately 25-35, whereas the substrate concentration was set to be larger than its affinity to factor XIa enzyme under equilibrium condition, Km. In presence of potential factor XIa inhibitor, the enzyme capacity to hydrolyze the designated peptide linkage in the substrate gets diminished or completely abolished depending on the inhibitor concentration and efficacy. […] Such decreased slope reflects a drop in the catalytic enzyme activity of factor XIa.

human plasma [1] = test: Prothrombin time (PT) plasma clotting assay; details: for 2 × PT: concentration doubling clotting time
Procedure: (§1) Plasma clotting assays, prothrombin and activated partial thromboplastin time (PT and APTT, respectively), are routinely used to assess the anticoagulation potential of new enzyme inhibitors in an in vitro setting. Whereas PT measures the effect of an inhibitor on the extrinsic pathway of coagulation, APTT measures the effect on the intrinsic pathway.
(§2) Prothrombin Time (PT) and Activated Partial Thromboplastin Time (APTT) were assessed as described in Example 1.

human plasma [2] = test: Activated partial thromboplastin time (APTT) plasma clotting assay; details: human plasma, concentration doubling clotting time
Procedure: as §1, §2

FXIa wild type (FXIa-WT) = target: T2, FXIa wild type (FXIa-WT) (Homo sapiens, UniProt P03951); test: Michaelis-Menten kinetics of S-2366 hydrolysis by full-length factor XIa; details: 14S 135 μM, pH 7.4, 37° C.
T2 construct: made in house; host or cells: HEK-293
Procedure: Plasma FIX (500 nM) was incubated with human FXIa (3 nM) in 50 mM Hepes buffer, pH 7.4, containing 125 mM NaCl, 5 mM CaCl2, and 0.1 mg/mL bovine serum albumin at 24° C. […] The primary antibody was goat anti-human FIX polyclonal IgG (Enzyme Research Laboratories, South Bend, Tenn.), and the secondary antibody was horseradish peroxidase-conjugated anti-goat IgG. Detection was by chemiluminescence. […] The inhibition profile was determined over a range of inhibitor concentrations to determine the IC50 of the enzyme-inhibitor complex. The KM of the substrate for its enzyme was used to identify the concentration of the substrate to be used for inhibition studies. […] Active site concentrations for preparations of FXIa were determined by titrations with human antithrombin in an S-2366 cleavage assay. The reaction was monitored using a SpectraMax 340 microtiter plate reader (Molecular Devices Corp., Sunnyvale, Calif.) with a reaction volume of 100 μL and path length of 3 mm. Each assay was performed in triplicate. The concentration of S-2366 was measured using an absorption coefficient of 8,266 M-1cm-1 at λ342 nm, while the free p-nitroaniline concentration was calculated using an absorption coefficient of 9,933 M cm^−1 at λ405 nm. The data was fitted using the standard Michaelis-Menten equation to determine the KM and VMAX. Results

[3] = sulfated QAOs, pH 7.4, 37° C., read-out: IC50 (converted)

T1 sequence (P03951 19-387 limits assumed): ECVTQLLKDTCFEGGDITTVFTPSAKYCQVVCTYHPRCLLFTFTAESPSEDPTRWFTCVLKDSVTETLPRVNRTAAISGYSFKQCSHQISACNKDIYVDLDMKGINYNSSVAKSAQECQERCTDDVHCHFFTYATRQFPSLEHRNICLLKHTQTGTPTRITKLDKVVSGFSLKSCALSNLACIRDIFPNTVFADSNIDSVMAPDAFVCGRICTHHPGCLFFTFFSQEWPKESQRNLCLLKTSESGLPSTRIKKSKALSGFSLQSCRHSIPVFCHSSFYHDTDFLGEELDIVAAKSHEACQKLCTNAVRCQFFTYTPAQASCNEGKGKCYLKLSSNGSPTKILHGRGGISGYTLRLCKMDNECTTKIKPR
T1 sequence (P03951 388-625 limits assumed): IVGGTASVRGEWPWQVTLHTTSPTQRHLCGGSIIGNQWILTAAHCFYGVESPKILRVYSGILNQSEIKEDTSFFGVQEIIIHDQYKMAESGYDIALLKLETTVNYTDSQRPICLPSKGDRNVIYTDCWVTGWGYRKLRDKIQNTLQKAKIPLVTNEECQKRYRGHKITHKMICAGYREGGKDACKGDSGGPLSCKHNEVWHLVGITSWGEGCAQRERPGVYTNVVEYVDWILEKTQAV
T2 sequence (P03951 19-387 limits assumed): as the sequence (P03951 19-387 limits assumed) above
T2 sequence (P03951 388-625 limits assumed): as the sequence (P03951 388-625 limits assumed) above

## O=C(OC[C@H]1O[C@@H](OC(=O)c2cc(O)c(O)c(O)c2)[C@H](OC(=O)c2cc(O)c(O)c(O)c2)[C@@H](OC(=O)c2cc(O)c(O)c(O)c2)[C@@H]1OC(=O)c1cc(O)c(O)c(O)c1)c1cc(O)c(O)c(O)c1 [Inhibitor 5, pentagalloyl glucopyranoside, reference compound]
Human factor XIa; highest concentration tested (300 μM)
  inhibition of FXIa proteolytic activity: completely inactive

## CC(=O)Oc1cccc(-c2nc3ccccc3c(=O)n2Cc2cn(CCCCn3c(-c4cccc(OS(=O)(=O)O)c4)nc4ccccc4c3=O)nn2)c1 [Inhibitor 7S]
Human factor XIa; pH 7.4, 37° C.
  factor XIa inhibition (in words): inactive
Human factor XIa; [3]
  IC50: > 1000 µM

## O=c1c2ccccc2nc(-c2cccc(OS(=O)(=O)O)c2)n1CCCCn1cc(Cn2c(-c3cccc(OS(=O)(=O)O)c3)nc3ccccc3c2=O)nn1 [Inhibitor 8S]
Human factor XIa; sulfated QAOs
  ΔY % (efficacy): 100 ± 6%

## CC(=O)Oc1cc(OS(=O)(=O)O)cc(-c2nc3ccccc3c(=O)n2Cc2cn(CCCCn3c(-c4cccc(OS(=O)(=O)O)c4)nc4ccccc4c3=O)nn2)c1 [Inhibitor 9S]
Human factor XIa; sulfated QAOs
  ΔY % (efficacy): 96 ± 1%
Human factor XIa; [3]
  IC50: 153 µM

## COc1cc(-c2nc3ccccc3c(=O)n2CCCCn2cc(Cn3c(-c4ccc(OS(=O)(=O)O)c(OC)c4)nc4ccccc4c3=O)nn2)ccc1OS(=O)(=O)O [Inhibitor 10S]
Human factor XIa; sulfated QAOs
  ΔY % (efficacy): 95 ± 1%
Human factor XIa; [3]
  IC50: 139 ± 1 µM

## O=c1c2ccccc2nc(-c2cccc(OS(=O)(=O)O)c2)n1CCCn1cc(Cn2c(-c3cccc(OS(=O)(=O)O)c3)nc3ccccc3c2=O)nn1 [Inhibitor 11S]
Human factor XIa; sulfated QAOs
  ΔY % (efficacy): 91 ± 4%

## O=c1c2ccccc2nc(-c2ccc(OS(=O)(=O)O)cc2)n1CCCCn1cc(Cn2c(-c3cccc(OS(=O)(=O)O)c3)nc3ccccc3c2=O)nn1 [Inhibitor 12S]
Human factor XIa; sulfated QAOs
  ΔY % (efficacy): 88 ± 3%
Human factor XIa; [3]
  IC50: 159 ± 2 µM

## O=c1c2ccccc2nc(-c2ccc(OS(=O)(=O)O)cc2)n1CCCCn1cc(Cn2c(-c3ccc(OS(=O)(=O)O)cc3)nc3ccccc3c2=O)nn1 [Inhibitor 13S]
Human factor XIa; sulfated QAOs
  ΔY % (efficacy): 91 ± 2%
Human factor XIa; [3]
  IC50: 82 µM and ~80 µM
Human plasma [1]
  concentration for 2-fold increase in PT: about 1.12 mM
  2 × PT: 1119 µM
Human plasma [2]
  2 × APTT: 979 µM

## O=c1c2ccccc2nc(-c2cccc(OS(=O)(=O)O)c2)n1CCCCn1cc(Cn2c(-c3ccc(OS(=O)(=O)O)cc3)nc3ccccc3c2=O)nn1 [Inhibitor 14S]
Human factor XIa; sulfated QAOs
  ΔY % (efficacy): 103 ± 5%
Human factor XIa; [3]
  IC50: 91 µM
FXIa wild type (FXIa-WT)
  VMAX: 5.1±0.5 mAU/min

## O=c1c2ccccc2nc(-c2ccc(OS(=O)(=O)O)cc2)n1CCCCCn1cc(Cn2c(-c3ccc(OS(=O)(=O)O)cc3)nc3ccccc3c2=O)nn1 [Inhibitor 15S]
Human factor XIa; sulfated QAOs
  ΔY % (efficacy): 89 ± 2%
Human factor XIa; [3]
  IC50: 59 µM
Human plasma [1]
  2 × PT: 1684 µM
Human plasma [2]
  2 × APTT: 1062 µM

## COc1cc(-c2nc3ccccc3c(=O)n2CCCCn2cc(Cn3c(-c4cccc(OS(=O)(=O)O)c4)nc4ccccc4c3=O)nn2)ccc1OS(=O)(=O)O [Inhibitor 17S]
Human factor XIa; sulfated QAOs
  ΔY % (efficacy): 88 ± 5%
Human factor XIa; [3]
  IC50: 182 ± 1 µM

## O=c1c2ccccc2nc(-c2cccc(OS(=O)(=O)O)c2)n1CCCCn1cc(Cn2c(-c3cc(OS(=O)(=O)O)cc(OS(=O)(=O)O)c3)nc3ccccc3c2=O)nn1 [Inhibitor 18S]
Human factor XIa; sulfated QAOs
  ΔY % (efficacy): 93 ± 2%
Human factor XIa; [3]
  IC50: 213 ± 2 µM

## CC(=O)Oc1cc(OS(=O)(=O)O)cc(-c2nc3ccccc3c(=O)n2CCCCn2cc(Cn3c(-c4cc(OS(=O)(=O)O)cc(OS(=O)(=O)O)c4)nc4ccccc4c3=O)nn2)c1 [Inhibitor 19S]
Human factor XIa; sulfated QAOs
  ΔY % (efficacy): 91 ± 2%
Human factor XIa; [3]
  IC50: 273 ± 3 µM

## O=c1c2ccccc2nc(-c2cc(OS(=O)(=O)O)cc(OS(=O)(=O)O)c2)n1CCCCn1cc(Cn2c(-c3cc(OS(=O)(=O)O)cc(OS(=O)(=O)O)c3)nc3ccccc3c2=O)nn1 [Inhibitor 20S]
Human factor XIa; [3]
  IC50: > 1000 µM

## COc1cc(OS(=O)(=O)O)cc2oc(-c3ccc(OS(=O)(=O)O)c(OCc4cn(CCCCn5c(-c6cccc(OS(=O)(=O)O)c6)nc6ccccc6c5=O)nn4)c3)c(OS(=O)(=O)O)c(=O)c12 [Inhibitor 25S]
Human factor XIa; [3]
  IC50: > 1000 µM

## COc1cc(-c2nc3ccccc3c(=O)n2CCCCn2cc(COc3cc(-c4oc5cc(OS(=O)(=O)O)cc(OC)c5c(=O)c4OS(=O)(=O)O)ccc3OS(=O)(=O)O)nn2)ccc1OS(=O)(=O)O [Inhibitor 26S]
Human factor XIa; [3]
  IC50: 216 µM

## O=c1c2ccccc2nc(-c2ccc(OS(=O)(=O)O)cc2)n1Cc1cn(CCn2cc(Cn3c(-c4ccc(OS(=O)(=O)O)cc4)nc4ccccc4c3=O)nn2)nn1 [Inhibitor 28S]
Human factor XIa; sulfated QAOs
  ΔY % (efficacy): 98 ± 3%

## O=c1c2ccccc2nc(-c2ccc(OS(=O)(=O)O)cc2)n1CCCCCn1nncc1Cn1c(-c2ccc(OS(=O)(=O)O)cc2)nc2ccccc2c1=O [Inhibitor 29S]
Human factor XIa; sulfated QAOs
  ΔY % (efficacy): 94 ± 1%
Human factor XIa; [3]
  IC50: 94 µM and 90 µM

## O=C(OC1C(OC(=O)c2cc(OS(=O)(=O)O)cc(OS(=O)(=O)O)c2)C(OC(=O)c2cc(OS(=O)(=O)O)cc(OS(=O)(=O)O)c2)C(OC(=O)c2cc(OS(=O)(=O)O)cc(OS(=O)(=O)O)c2)C(OC(=O)c2cc(OS(=O)(=O)O)cc(OS(=O)(=O)O)c2)C1OC(=O)c1cc(OS(=O)(=O)O)cc(OS(=O)(=O)O)c1)c1cc(OS(=O)(=O)O)cc(OS(=O)(=O)O)c1 (stereo not drawn) [SMI, Sulfated hexa-substituted myo-inositol]
Human factor XIa; read-out: FXIa-IC50
  IC50: 0.09 µM

Source: patent US9758459B2, “Allosteric modulators of factor XIa as anticoagulant agents” (VIRGINIA COMMONWEALTH UNIVERSITY, priority 2012, dated 2017)
